Measured values from patent US20250250230A1, “HETEROCYCLIC COMPOUND” (TAKEDA PHARMACEUTICAL COMPANY LIMITED, priority 2022, published 2025).

What follows are molecules tested against T1, human orexin type 2 receptor (Homo sapiens, UniProt O43614) (assay: Measurement of orexin type 2 receptor agonist activity (calcium fluorescence, Fluo-4 AM, FDSS)). Settings: test compound 3 μM; CHO cells expressing human OX2 receptor; DMSO = 0%, orexin A (human) = 100%.
T1 construct: expressed in transfected cells
T1 sequence (O43614 1-444): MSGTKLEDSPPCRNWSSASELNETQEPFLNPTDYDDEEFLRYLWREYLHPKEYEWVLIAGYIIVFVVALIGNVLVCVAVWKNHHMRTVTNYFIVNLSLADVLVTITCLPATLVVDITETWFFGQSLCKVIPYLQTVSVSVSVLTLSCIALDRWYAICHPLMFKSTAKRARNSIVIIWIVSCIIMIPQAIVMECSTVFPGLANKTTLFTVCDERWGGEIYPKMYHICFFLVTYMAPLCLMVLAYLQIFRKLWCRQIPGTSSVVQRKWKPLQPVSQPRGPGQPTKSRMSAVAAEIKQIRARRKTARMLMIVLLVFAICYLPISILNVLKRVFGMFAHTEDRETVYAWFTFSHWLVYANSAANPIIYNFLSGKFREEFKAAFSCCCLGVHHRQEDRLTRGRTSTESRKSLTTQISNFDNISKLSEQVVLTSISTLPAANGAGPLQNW
Assay type: cell-based
How it was run: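 Agonist response scaled between vehicle (0%) and human orexin A at 10 nM final (100%), from 2-min kinetic Fluo-4 fluorescence reads. Stable hOX2R CHO-K1 clone, dye-loaded in HBSS/20 mM HEPES/0.1% BSA with 1.25 mM probenecid before compound addition.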
For `CS(=O)(=O)N[C@@H]1CN(C(=O)C2CC2c2ccccc2-c2c(F)cccc2F)CC[C@@H]1F` (stereo partly drawn) [Example 216, N-{(3R,4S)-1-[(1R,2R)-2-(2′,6′-difluoro[1,1′-biphenyl]-2-yl)cyclopropane-1-carbonyl]-4-fluoropiperidin-3-yl}methanesulfonamide, or N-{(3R,4S)-1-[(1S,2S)-2-(2′,6′-difluoro[1,1′-biphenyl]-2-yl)cyclopropane-1-carbonyl]-4-fluoropiperidin-3-yl}methanesulfonamide], the “OX2R agonist activity (3 μM, %)” value was 99%.
With `CC1(NS(C)(=O)=O)CCN(C(=O)[C@@H]2C[C@@]2(F)c2ccccc2-c2c(F)cccc2F)C1` (stereo partly drawn) [Example 344, N-{(3R)-1-[(1S,2S)-2-(2′,6′-difluoro[1,1′-biphenyl]-2-yl)-2-fluorocyclopropane-1-carbonyl]-3-methylpyrrolidin-3-yl}methanesulfonamide, or N-{(3S)-1-[(1S,2S)-2-(2′,6′-difluoro[1,1′-biphenyl]-2-yl)-2-fluorocyclopropane-1-carbonyl]-3-methylpyrrolidin-3-yl}methanesulfonamide] the “OX2R agonist activity (3 μM, %)” value was 95%.
In the case of `O=C(C1CC1c1ccccc1-c1c(F)cccc1F)N1CC[C@H](NS(=O)(=O)CF)C1` (mixture of isomers) [Example 202, a mixture of rac-N-{(3S)-1-[(1R,2R)-2-(2′,6′-difluoro[1,1′-biphenyl]-2-yl)cyclopropane-1-carbonyl]pyrrolidin-3-yl}-1-fluoromethanesulfonamide and N-{(3S)-1-[(1S,2S)-2-(2′,6′-difluoro[1,1′-biphenyl]-2-yl)cyclopropane-1-carbonyl]pyrrolidin-3-yl}-1-fluoromethanesulfonamide], the “OX2R agonist activity (3 μM, %)” value is reported as 106%.
With `CC1CC(NS(C)(=O)=O)CN(C(=O)C2CC2c2ccccc2-c2c(F)cccc2F)C1` (racemic) [Example 158] the “OX2R agonist activity (3 μM, %)” value was 106%.
`CS(=O)(=O)N[C@H]1C[C@H](O)CN(C(=O)[C@@H]2C[C@H]2c2ccccc2-c2c(F)cccc2F)C1` [Example 319, N-{(3S,5S)-1-[(1R,2R)-2-(2′,6′-difluoro[1,1′-biphenyl]-2-yl)cyclopropane-1-carbonyl]-5-hydroxypiperidin-3-yl}methanesulfonamide] was tested, and the “OX2R agonist activity (3 μM, %)” value was 101%.
`CCS(=O)(=O)NCC1CCN1C(=O)C1CC1c1ccccc1-c1c(F)cccc1F` (racemic) [Example 203, a mixture of rac-N-({(2R)-1-[(1R,2R)-2-(2′,6′-difluoro[1,1′-biphenyl]-2-yl)cyclopropane-1-carbonyl]azetidin-2-yl}methyl)ethanesulfonamide and rac-N-({(2S)-1-[(1R,2R)-2-(2′,6′-difluoro[1,1′-biphenyl]-2-yl)cyclopropane-1-carbonyl]azetidin-2-yl}methyl)ethanesulfonamide] was tested, and the “OX2R agonist activity (3 μM, %)” value was 94%.
With `COC[C@@H]1CN(C(=O)[C@@H]2C[C@@]2(F)c2ccccc2-c2c(F)cccc2F)C1CNS(C)(=O)=O` (stereo in doubt) [Example 399, N-{[(2R,3R)-1-[(1S,2S)-2-(2′,6′-difluoro[1,1′-biphenyl]-2-yl)-2-fluorocyclopropane-1-carbonyl]-3-(methoxymethyl)azetidin-2-yl]methyl}methanesulfonamide] the “OX2R agonist activity (3 μM, %)” value was 95%.
For `CCC(NS(C)(=O)=O)[C@@H]1CCN1C(=O)[C@@H]1C[C@@]1(F)c1ccccc1-c1c(F)cccc1F` (stereo partly drawn) [Example 379, N-[(1R)-1-{(2S)-1-[(1S,2S)-2-(2′,6′-difluoro[1,1′-biphenyl]-2-yl)-2-fluorocyclopropane-1-carbonyl]azetidin-2-yl}propyl]methanesulfonamide, or N-[(1S)-1-{(2S)-1-[(1S,2S)-2-(2′,6′-difluoro[1,1′-biphenyl]-2-yl)-2-fluorocyclopropane-1-carbonyl]azetidin-2-yl}propyl]methanesulfonamide], the “OX2R agonist activity (3 μM, %)” value was 86%.
For `CS(=O)(=O)N[C@@H]1CN(C(=O)C2CC2c2c(-c3c(F)cccc3F)csc2F)CCC1(F)F` (stereo partly drawn) [Example 378, N-[(3R)-1-{(1R,2R)-2-[4-(2,6-difluorophenyl)-2-fluorothiophen-3-yl]cyclopropane-1-carbonyl}-4,4-difluoropiperidin-3-yl]methanesulfonamide, or N-[(3R)-1-{(1S,2S)-2-[4-(2,6-difluorophenyl)-2-fluorothiophen-3-yl]cyclopropane-1-carbonyl}-4,4-difluoropiperidin-3-yl]methanesulfonamide], the “OX2R agonist activity (3 μM, %)” value was 103%.
`CS(=O)(=O)N[C@@H]1CN(C(=O)[C@@H]2C[C@H]2c2ccccc2-c2c(F)cccc2F)C[C@H]1F` [Example 279, N-{(3R,4R)-1-[(1R,2R)-2-(2′,6′-difluoro[1,1′-biphenyl]-2-yl)cyclopropane-1-carbonyl]-4-fluoropyrrolidin-3-yl}methanesulfonamide] was tested, and the “OX2R agonist activity (3 μM, %)” value was 87%.
`CCS(=O)(=O)NC[C@@H]1[C@H](F)CN1C(=O)C1CC1(F)c1ccccc1-c1ccccc1F` (stereo partly drawn) [Example 442, N-({(2R,3R)-3-fluoro-1-[(1R,2R)-2-fluoro-2-(2′-fluoro[1,1′-biphenyl]-2-yl)cyclopropane-1-carbonyl]azetidin-2-yl}methyl)ethanesulfonamide, or N-({(2R,3R)-3-fluoro-1-[(1S,2S)-2-fluoro-2-(2′-fluoro[1,1′-biphenyl]-2-yl)cyclopropane-1-carbonyl]azetidin-2-yl}methyl)ethanesulfonamide] was tested, and the “OX2R agonist activity (3 μM, %)” value was 100%.
In the case of `Cc1noc(C2(NS(C)(=O)=O)CCN(C(=O)[C@@H]3C[C@@]3(F)c3ccccc3-c3c(F)cccc3F)C2)n1` (mixture of isomers) [Example 421, a mixture of N-[(3R)-1-[(1S,2S)-2-(2′,6′-difluoro[1,1′-biphenyl]-2-yl)-2-fluorocyclopropane-1-carbonyl]-3-(3-methyl-1,2,4-oxadiazol-5-yl)pyrrolidin-3-yl]methanesulfonamide and N-[(3S)-1-[(1S,2S)-2-(2′,6′-difluoro[1,1′-biphenyl]-2-yl)-2-fluorocyclopropane-1-carbonyl]-3-(3-methyl-1,2,4-oxadiazol-5-yl)pyrrolidin-3-yl]methanesulfonamide], the “OX2R agonist activity (3 μM, %)” value is reported as 88%.
In the case of `CC1C(C(=O)N2CCCC[C@H](NS(C)(=O)=O)C2)C1c1ccccc1-c1c(F)cccc1F` (mixture of isomers) [Example 311, a mixture of N-{(3S)-1-[(1R,2R,3S)-2-(2′,6′-difluoro[1,1′-biphenyl]-2-yl)-3-methylcyclopropane-1-carbonyl]azepan-3-yl}methanesulfonamide and N-{(3S)-1-[(1S,2S,3R)-2-(2′,6′-difluoro[1,1′-biphenyl]-2-yl)-3-methylcyclopropane-1-carbonyl]azepan-3-yl}methanesulfonamide], the “OX2R agonist activity (3 μM, %)” value is reported as 98%.
With `C[C@@H]1C[C@H](NS(C)(=O)=O)CN1C(=O)[C@@H]1C[C@H]1c1ccccc1-c1c(F)cccc1F` [Example 263, N-{(3S,5R)-1-[(1R,2R)-2-(2′,6′-difluoro[1,1′-biphenyl]-2-yl)cyclopropane-1-carbonyl]-5-methylpyrrolidin-3-yl}methanesulfonamide] the “OX2R agonist activity (3 μM, %)” value was 98%.
